Source: ChEMBL document CHEMBL1152576, “E-Combretastatin and E-resveratrol structural modifications: antimicrobial and cancer cell growth inhibitory beta-E-nitrostyrenes” (Bioorg Med Chem, 2009)
In brackets after ≈: the same amount, converted by molar mass. Activity calls are given as the source filed them. The rule behind the calls is not given here.

Assays:
Cryptococcus neoformans [1] = assay: Antifungal activity against Cryptococcus neoformans ATCC 90112 after 72 hrs by broth microdilution susceptibility assay; type: functional; conditions: ATCC 90112, 72 h
Enterococcus faecalis [2] = assay: Antimicrobial activity against Enterococcus faecalis ATCC 29212 assessed clear zone in inhibition per disk by CLSI disk diffusion susceptibility assay; type: functional
Staphylococcus aureus [3] = assay: Antimicrobial activity against Staphylococcus aureus ATCC 29213 assessed clear zone in inhibition per disk by CLSI disk diffusion susceptibility assay; type: functional
Enterobacter cloacae [4] = assay: Antimicrobial activity against Enterobacter cloacae ATCC 13047 after 24 hrs by broth microdilution susceptibility assay; type: functional; conditions: ATCC 13047, 24 h
[5] = tested on: Stenotrophomonas maltophilia; assay: Antimicrobial activity against Stenotrophomonas maltophilia ATCC 13637 by broth microdilution susceptibility assay; type: functional
[6] = tested on: Stenotrophomonas maltophilia; assay: Antimicrobial activity against Stenotrophomonas maltophilia ATCC 13637 after 24 hrs by broth microdilution susceptibility assay; type: functional; conditions: ATCC 13637, 24 h
Staphylococcus aureus [7] = assay: Antimicrobial activity against Staphylococcus aureus ATCC 29213 after 24 hrs by broth microdilution susceptibility assay; type: functional; conditions: ATCC 29213, 24 h
A498 = assay: Cytotoxicity against human A498 cells after 48 hrs by sulforhodamine B assay; type: functional
Streptococcus pneumoniae [8] = assay: Antimicrobial activity against Streptococcus pneumoniae ATCC 6303 after 24 hrs by broth microdilution susceptibility assay; type: functional; conditions: ATCC 6303, 24 h
[9] = tested on: Stenotrophomonas maltophilia; assay: Antimicrobial activity against Stenotrophomonas maltophilia ATCC 13637 assessed clear zone in inhibition per disk by CLSI disk diffusion susceptibility assay; type: functional
Neisseria gonorrhoeae [10] = assay: Antimicrobial activity against Neisseria gonorrhoeae ATCC 49226 assessed clear zone of inhibition measured per disk by CLSI disk diffusion susceptibility assay; type: functional
Escherichia coli [11] = assay: Antimicrobial activity against Escherichia coli ATCC 25922 assessed clear zone in inhibition per disk by CLSI disk diffusion susceptibility assay; type: functional
Enterococcus faecalis [12] = assay: Antimicrobial activity against Enterococcus faecalis ATCC 29212 after 24 hrs by broth microdilution susceptibility assay; type: functional; conditions: ATCC 29212, 24 h
SF-268 = assay: Cytotoxicity against human SF268 cells after 48 hrs by sulforhodamine B assay; type: functional
Enterococcus faecalis [13] = assay: Antimicrobial activity against Enterococcus faecalis ATCC 29212 by broth microdilution susceptibility assay; type: functional
Streptococcus pneumoniae [14] = assay: Antimicrobial activity against Streptococcus pneumoniae ATCC 6303 assessed clear zone in inhibition per disk by CLSI disk diffusion susceptibility assay; type: functional
Streptococcus pneumoniae [15] = assay: Antimicrobial activity against Streptococcus pneumoniae ATCC 6303 by broth microdilution susceptibility assay; type: functional
DU-145 = assay: Cytotoxicity against human DU145 cells after 48 hrs by sulforhodamine B assay; type: functional; conditions: DU-145, 48 h
Candida albicans [16] = assay: Antifungal activity against Candida albicans ATCC 90028 after 24 hrs by broth microdilution susceptibility assay; type: functional; conditions: ATCC 90028, 24 h
Micrococcus luteus [17] = assay: Antimicrobial activity against Micrococcus luteus Presque Isle 456 by broth microdilution susceptibility assay; type: functional
MCF7 = assay: Cytotoxicity against human MCF7 cells after 48 hrs by sulforhodamine B assay; type: functional; conditions: MCF7, 48 h
Escherichia coli [18] = assay: Antimicrobial activity against Escherichia coli ATCC 25922 after 24 hrs by broth microdilution susceptibility assay; type: functional; conditions: ATCC 25922, 24 h
Candida albicans [19] = assay: Antimicrobial activity against Candida albicans ATCC 90028 assessed clear zone in inhibition per disk by CLSI disk diffusion susceptibility assay; type: functional
SK-MEL-5 = assay: Cytotoxicity against human SK-MEL-5 cells after 48 hrs by sulforhodamine B assay; type: functional
Staphylococcus aureus [20] = assay: Antimicrobial activity against Staphylococcus aureus ATCC 29213 by broth microdilution susceptibility assay; type: functional
KM-20L2 = assay: Cytotoxicity against human KM20L2 cells after 48 hrs by sulforhodamine B assay; type: functional; conditions: KM-20L2, 48 h
SF-295 = assay: Cytotoxicity against human SF295 cells after 48 hrs by sulforhodamine B assay; type: functional; conditions: SF-295, 48 h
[21] = Inhibition of tubulin polymerization
P388 = assay: Cytotoxicity against mouse P388 cells after 48 hrs by sulforhodamine B assay; type: functional; conditions: P388, 48 h, read-out: ED50 (the source's name)
Enterobacter cloacae [22] = assay: Antimicrobial activity against Enterobacter cloacae ATCC 13047 assessed clear zone in inhibition per disk by CLSI disk diffusion susceptibility assay; type: functional
BXPC-3 = assay: Cytotoxicity against human BxPC3 cells after 48 hrs by sulforhodamine B assay; type: functional; conditions: BXPC-3, 48 h
Candida albicans [23] = assay: Antifungal activity against Candida albicans ATCC 90028 after 48 hrs by broth microdilution susceptibility assay; type: functional; conditions: ATCC 90028, 48 h
NCI-H460 = assay: Cytotoxicity against human NCI-H460 cells after 48 hrs by sulforhodamine B assay; type: functional; conditions: NCI-H460, 48 h
Neisseria gonorrhoeae [24] = assay: Antimicrobial activity against Neisseria gonorrhoeae ATCC 49226 by broth microdilution susceptibility assay; type: functional
Cryptococcus neoformans [25] = assay: Antimicrobial activity against Cryptococcus neoformans ATCC 90112 assessed clear zone in inhibition per disk by CLSI disk diffusion susceptibility assay; type: functional
Micrococcus luteus [26] = assay: Antimicrobial activity against Micrococcus luteus Presque Isle 456 assessed clear zone in inhibition per disk by CLSI disk diffusion susceptibility assay; type: functional
Escherichia coli [27] = assay: Antimicrobial activity against Escherichia coli ATCC 25922 by broth microdilution susceptibility assay; type: functional
OVCAR-3 = assay: Cytotoxicity against human OVCAR-3 cells after 48 hrs by sulforhodamine B assay; type: functional
Enterobacter cloacae [28] = assay: Antimicrobial activity against Enterobacter cloacae ATCC 13047 by broth microdilution susceptibility assay; type: functional
Neisseria gonorrhoeae [29] = assay: Antimicrobial activity against Neisseria gonorrhoeae ATCC 49226 after 24 hrs by broth microdilution susceptibility assay; type: functional; conditions: ATCC 49226, 24 h

COc1ccccc1/C=C/[N+](=O)[O-]
MIC (Cryptococcus neoformans [1]): > 64 µg/mL | MIC (Enterococcus faecalis [2]): 0.78 µg | MIC (Staphylococcus aureus [3]): 6.25 µg | MBC (Enterobacter cloacae [4]): > 64 µg/mL | MIC [5]: 32 µg/mL (≈ 179 µM) | MBC [6]: 64 µg/mL (≈ 357 µM) | MBC (Staphylococcus aureus [7]): > 64 µg/mL | GI50 (A498): inactive | MBC (Streptococcus pneumoniae [8]): > 64 µg/mL | MIC [9]: 12.5 µg | MIC (Neisseria gonorrhoeae [10]): 0.78 µg | MIC (Escherichia coli [11]): 50 µg | MBC (Enterococcus faecalis [12]): > 64 µg/mL | GI50 (SF-268): inactive | MIC (Enterococcus faecalis [13]): 64 µg/mL (≈ 357 µM) | MIC (Streptococcus pneumoniae [14]): 25 µg | MIC (Streptococcus pneumoniae [15]): 64 µg/mL (≈ 357 µM) | GI50 (DU-145): 1.5 µg/mL (≈ 8.37 µM) | MFC (Candida albicans [16]): 16 µg/mL (≈ 89.3 µM) | MIC (Micrococcus luteus [17]): > 64 µg/mL | GI50 (MCF7): 0.48 µg/mL (≈ 2.68 µM) | MBC (Escherichia coli [18]): 64 µg/mL (≈ 357 µM) | MIC (Candida albicans [19]): 1.56 µg | GI50 (SK-MEL-5): inactive | MIC (Staphylococcus aureus [20]): 64 µg/mL (≈ 357 µM) | GI50 (KM-20L2): 1.5 µg/mL (≈ 8.37 µM) | GI50 (SF-295): 1.7 µg/mL (≈ 9.49 µM) | IC50 [21]: 7.4 µM | EC50 (P388): 0.51 µg/mL (≈ 2.85 µM) | MIC (Enterobacter cloacae [22]): 25 µg | GI50 (BXPC-3): 1.6 µg/mL (≈ 8.93 µM) | MIC (Candida albicans [23]): 8 µg/mL (≈ 44.6 µM) | GI50 (NCI-H460): 1.7 µg/mL (≈ 9.49 µM) | MIC (Neisseria gonorrhoeae [24]): 2 µg/mL (≈ 11.2 µM) | MIC (Cryptococcus neoformans [25]): 0.78 µg | MIC (Micrococcus luteus [26]): >100 µg | MIC (Escherichia coli [27]): 64 µg/mL (≈ 357 µM) | GI50 (OVCAR-3): inactive | MIC (Enterobacter cloacae [28]): 64 µg/mL (≈ 357 µM) | MBC (Neisseria gonorrhoeae [29]): 2 µg/mL (≈ 11.2 µM)
